Consider one compound from patent US20050107438A1, “Pharmaceutical composition comprising 3-[(2-{[4-(Hexyloxycarbonylaminoiminomethyl) phenylamino]-methyl}-1-methyl-1H-benzimidazol-5-carbonyl)-pyridin-2-yl-amino]-propionic acid ethyl ester or a salt therefore” (Boehringer Ingelheim International GmbH, priority 2003, published 2005).

Molecules are shown by their SMILES.

A short description of this data set: Solubility of the compound in water as a function of pH. The data set is classed as physicochemical. An excerpt:
Therefore, pantoprazole which serves to raise the pH of the stomach was given to the test subjects in one branch of treatment in the clinical trials.

For the compound `CCCCCCOC(=O)NC(=N)c1ccc(NCc2nc3cc(C(=O)N(CCC(=O)OCC)c4ccccn4)ccc3n2C)cc1` [compound of formula (I), ethyl 3-[(2-{[4-(hexyloxycarbonylaminoiminomethyl)phenylamino]methyl}-1-methyl-1H-benzimidazole-5-carbonyl)pyridin-2-ylamino]propionate], the solubility in water result is listed as “dissolves relatively easily” (low pH values) and “virtually insoluble” (pH levels above 5, definition of the European Pharmacopoeia).
